Results published in patent US20180118707A1, “BETA-NAPHTHOISOFLAVONES, COMPOSITIONS CONTAINING, AND USES OF, SAME” (Thesan Pharmaceuticals, Inc., priority 2015, published 2018).

Tests used:
CYP1A1 [1] = test: Induction of CYP1A1 enzyme in human cultured sebocytes, EROD assay; format: cell-based; conditions: cultured sebocytes, probe 7-ethoxyresorufin (8 μM)
Experimental: Cells are seeded at between 1×10^4 and 2.5×10^4 cells/well in a 96-well microtitre plate. […] 100 μl of medium is then transferred to a fresh black 96-well plate and 130 μl methanol added. The formation of resorufin is quantified by fluorometry with a fluorescence plate reader. Fluorescence is determined at λex 570 nm and λem 590 nm. The amount of resorufin is calculated from a standard curve generated using 0 to 1 μM resorufin in water at ½ log dilutions. The remaining (i.e. all cells present at the beginning of analysis, since only supernatant is taken to assay EROD) live cells are subsequently utilized for the MU cytotoxicity assay. MU is made up in serum-free medium at 5 mg/mi. then added to the cells giving a final concentration of 10% (0.5 mg/ml MIT final) then incubated for 2 h. The medium is carefully removed, then MIT formazan is solubilized by adding 200 μl of DMSO and subsequently mixed on a plate shaker. The absorbance is measured spectrophotometrically at 550 nm and background absorbance at […] is subtracted. A standard curve generated using MTT formazan (dissolved in DMSO) from O—200 μM (0, 2, 5, 10, 20, 50, 100, 200 μM) is used to calculate the final experimental values which are then expressed as (μmol resorufin/mol MTT formazan) or as fold-induction compared to solvent.

CYP1A1 [2] = test: Induction of CYP1A1 enzyme in HepG2 cells, EROD assay; format: cell-based, human; conditions: human, probe 7-ethoxyresorufin (8 μM)
Experimental: (§1) The formation of resorufin is quantified by fluorometry with a fluorescence plate reader. Fluorescence is determined at λex 570 nm and λem 590 nm. The amount of resorufin is calculated from a standard curve generated using 0 to 1 μM resorufin in water at ½ log dilutions. The remaining (i.e. all cells present at the beginning of analysis, since only supernatant is taken to assay EROD) live cells are subsequently utilized for the MIT cytotoxicity assay. MTT is made up in serum-free medium at 5 mg/ml. then added to the cells giving a final concentration of 10% (0.5 mg/ml MTT final) then incubated for 2 h. The medium is carefully removed, then MTT formazan is solubilized by adding 200 μl of DMSO and subsequently mixed on a plate shaker. The absorbance is measured spectra photometrically at 550 nm and background absorbance at 690 nm is subtracted. A standard curve generated using MIT formazan (dissolved in DMSO) from O—200 μM (0, 2, 5, 10, 20, 50, 100, 200 μM) is used to calculate the final experimental values which are then expressed as (wnol resarufin/mol MTT formazan) or as fold-Induction compared to solvent.

sebaceous glands = test: Mouse ear assay for determination of sebaceous gland prevalence; format: in vivo; conditions: C57BL/6 mice, ears, 1% solution in DMSO:acetone 50:50 twice a day for five days, vs controls
Experimental: C57BL/6.I male mice (Harlan Models), approximately 4-5 weeks of age, body weight 20-30 g, were acclimatized (individually housed) for 5 days in a 12 hour light/dark cycle standard laboratory environment (T=20-24° C., relative humidity 30-70%, 15-20 air changes per hour) with access to water and standard rodent chow (Harlan Teklad 2014C supplied by Harlan Laboratories Models, S.L.) ad libitum. Animals were anesthetized with isoflurane and the test article (80 ul, 1% solution in DMSO:acetone 50:50) was administered to the outer surface of each of the ears of between 2 and 5 mice twice a day for five days by dermal application using a micropipette tip (a little volume of the solution was also applied on the inner side of the ears). All animals were monitored daily for reaction to the treatment, signs of illness, and behavioral changes. Body weights were recorded before the first administration and immediately prior to sacrifice. Approximately 12 to 16 hours after the final administration on day 5 the mice were sacrificed by i.p. injection of sodium pentobarbital (200 mg/kg) and the ears were collected. Each ear was sectioned into two halves. For each animal, one-half of one ear was fixed, in neutral phosphate-buffered 4% formaldehyde solution (4% formalin). This trimmed section of the ear was then processed, embedded in paraffin wax and stored at room temperature. […]

human sebocyte cells = test: MTT cytotoxicity assay in human cultured sebocytes after EROD; format: cell-based
Experimental: The essential methodology for culture and handling of human cultured sebocytes has been described in earlier examples for HEPG2 and NHK cells. Cells are seeded at between 1×10^4 and 2.5×10^4 cells/well in a 96-well microtitre plate. […] The formation of resorufin is quantified by fluorometry with a fluorescence plate reader. Fluorescence is determined at λex 570 nm and λem 590 nm. The amount of resorufin is calculated from a standard curve generated using 0 to 1 μM resorufin in water at ½ log dilutions. The remaining (i.e. all cells present at the beginning of analysis, since only supernatant is taken to assay EROD) live cells are subsequently utilized for the MU cytotoxicity assay. MU is made up in serum-free medium at 5 mg/mi. then added to the cells giving a final concentration of 10% (0.5 mg/ml MIT final) then incubated for 2 h. The medium is carefully removed, then MIT formazan is solubilized by adding 200 μl of DMSO and subsequently mixed on a plate shaker. The absorbance is measured spectrophotometrically at 550 nm and background absorbance at […] is subtracted. A standard curve generated using MTT formazan (dissolved in DMSO) from O—200 μM (0, 2, 5, 10, 20, 50, 100, 200 μM) is used to calculate the final experimental values which are then expressed as (μmol resorufin/mol MTT formazan) or as fold-induction compared to solvent.

HepG2 cells = test: MTT cytotoxicity assay in HepG2 cells after EROD; format: cell-based, human
Experimental: as §1, with “subtracted.” for “subtracted. A standard curve generated using MIT formazan (dissolved in DMSO) from O—200 μM (0, 2, 5, 10, 20, 50, 100, 200 μM) is used to calculate the final experimental values which are then expressed as (wnol resarufin/mol MTT formazan) or as fold-Induction compared to solvent.”

EC50 at 24 h (CYP1A1 [1])	EC50 at 24 h (CYP1A1 [2])	Structure (SMILES)	number of differentiated sebocytes (sebaceous glands)	number of sebaceous glands (sebaceous glands)	Toxicity threshold (human sebocyte cells)	Toxicity threshold (HepG2 cells)
50 nM	1000 nM	O=c1c(-c2ccccc2)coc2ccc3ccccc3c12 [Compound B]	reduction	clear reduction	>30 µM	>30 µM
200 nM	2000 nM	COc1ccccc1-c1coc2ccc3ccccc3c2c1=O [Compound F]	–	–	50 µM	>30 µM
250 nM	2000 nM	COc1cccc(-c2coc3ccc4ccccc4c3c2=O)c1 [Compound G]	–	–	30 µM	100 µM
250 nM	1500 nM	O=c1c(-c2cccc(O)c2)coc2ccc3ccccc3c12 [Compound H]	–	–	>30 µM	>100 µM
50 nM	1500 nM	O=c1c(-c2ccc(O)cc2)coc2ccc3ccccc3c12 [Compound J]	–	–	>30 µM	100 µM
